Measured values taken from patent US20070049593A1 (priority 2004, published 2007).
Where a name gives a salt, the structure may show the parent alone.

biological target: T1, HCV polymerase (Hepatitis C virus genotype 1b, UniProt P26663); assay: biochemical; set-up: species or system HCV BK strain
T1 construct: a region encoding NS5B (J Virol 1991 March, 65(3), 1105-13, 544 amino acids after deletion of 47 amino acids on the C-terminal); 6xHis (C); made in house; host or cells: Escherichia coli
Method in brief: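 Recombinant HCV BK-strain NS5B (C-terminal 47 aa deleted, His6-tagged, E. coli), 0.5 μg/ml, run with 5 μg/ml in vitro-transcribed RNA template (polyU/3′X), ATP/GTP/CTP 50 μM, UTP 2 μM plus [3H]UTP, pH 7.5, 25° C, 90 min. TCA-precipitated RNA counted by scintillation; IC50 from activity with vs without compound.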

T1 sequence (P26663 2420-2963): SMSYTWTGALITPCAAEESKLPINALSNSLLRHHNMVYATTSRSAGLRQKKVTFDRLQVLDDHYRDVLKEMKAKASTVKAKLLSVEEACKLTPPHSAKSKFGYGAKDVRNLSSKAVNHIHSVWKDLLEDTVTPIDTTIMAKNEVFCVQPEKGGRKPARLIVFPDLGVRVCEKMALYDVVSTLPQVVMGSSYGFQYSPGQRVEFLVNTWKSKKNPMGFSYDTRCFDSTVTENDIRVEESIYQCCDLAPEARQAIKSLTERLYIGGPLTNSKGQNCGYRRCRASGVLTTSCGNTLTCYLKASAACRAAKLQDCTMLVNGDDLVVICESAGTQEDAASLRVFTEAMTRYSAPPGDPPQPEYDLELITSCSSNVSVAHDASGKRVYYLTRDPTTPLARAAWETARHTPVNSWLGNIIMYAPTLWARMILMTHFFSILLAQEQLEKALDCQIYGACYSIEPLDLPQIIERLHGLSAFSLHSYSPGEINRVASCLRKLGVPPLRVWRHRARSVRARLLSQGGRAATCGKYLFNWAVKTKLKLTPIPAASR

Row | SMILES | IC50 [nM]
1 | COCC[C@@H]1CCCN(C(=O)CN2CCn3c(c(C4CCCCC4)c4ccc(C(=O)O)cc43)-c3ccc(C)cc32)C1 [Example 1-570, 13-cyclohexyl-5-{2-[(S)-3-(2-methoxyethyl)piperidin-1-yl]-2-oxoethyl}-3-methyl-6,7-dihydro-5H-benzo[5,6][1,4]diazepino[7,1-a]indole-10-carboxylic acid] | < 100
2 | Cc1ccc2c(c1)N(CC(=O)N1CCN(S(C)(=O)=O)CC1)CCn1c-2c(C2CCCCC2)c2ccc(C(=O)O)cc21 [Example 1-571, 13-cyclohexyl-5-[2-(4-methanesulfonylpiperazin-1-yl)-2-oxoethyl]-3-methyl-6,7-dihydro-5H-benzo[5,6][1,4]diazepino[7,1-a]indole-10-carboxylic acid] | < 100
3 | COC1CCN(C(=O)CN2CCn3c(c(C4CCCCC4)c4ccc(C(=O)O)cc43)-c3ccc(C)cc32)CC1 [Example 1-572, 13-cyclohexyl-5-[2-(4-methoxypiperidin-1-yl)-2-oxoethyl]-3-methyl-6,7-dihydro-5H-benzo[5,6][1,4]diazepino[7,1-a]indole-10-carboxylic acid] | < 100
4 | CNC(=O)c1ccc2c(C3CCCCC3)c3n(c2c1)CCN(CC(=O)N1CCN(S(C)(=O)=O)CC1)c1cc(C)ccc1-3 [Example 1-573, N-methyl-13-cyclohexyl-5-[2-(4-methanesulfonylpiperazin-1-yl)-2-oxoethyl]-3-methyl-6,7-dihydro-5H-benzo[5,6][1,4]diazepino[7,1-a]indole-10-carboxamide] | < 100
5 | Cc1ccc2c(c1)N(C)CCn1c-2c(C2CCCCC2)c2ccc(C(=O)O)cc21 [Example 1-574, 13-cyclohexyl-3,5-dimethyl-6,7-dihydro-5H-benzo[5,6][1,4]diazepino[7,1-a]indole-10-carboxylic acid] | < 100
6 | CN(C)CCN1CCn2c(c(C3CCCCC3)c3ccc(C(=O)O)cc32)-c2ccc(OCCN3CCOC3=O)cc21 [Example 1-575, 13-cyclohexyl-5-(2-dimethylaminoethyl)-3-[2-(2-oxooxazolidin-3-yl)ethoxy]-6,7-dihydro-5H-benzo[5,6][1,4]diazepino[7,1-a]indole-10-carboxylic acid dihydrochloride] | < 100
7 | CN(C)CCN1CCn2c(c(C3CCCCC3)c3ccc(C(=O)O)cc32)-c2ccc(OCCNCCO)cc21 [Example 1-576, 13-cyclohexyl-5-(2-dimethylaminoethyl)-3-[2-(2-hydroxyethylamino)ethoxy]-6,7-dihydro-5H-benzo[5,6][1,4]diazepino[7,1-a]indole-10-carboxylic acid trihydrochloride] | < 100
8 | COc1cccc(COc2ccc3c(c2)N(CCN(C)C)CCn2c-3c(C3CCCCC3)c3ccc(C(=O)O)cc32)c1 [Example 1-577, 13-cyclohexyl-5-(2-dimethylaminoethyl)-3-(3-methoxybenzyloxy)-6,7-dihydro-5H-benzo[5,6][1,4]diazepino[7,1-a]indole-10-carboxylic acid dihydrochloride] | < 100
9 | CN(C)CCN1CCn2c(c(C3CCCCC3)c3ccc(C(=O)O)cc32)-c2ccc(OCc3cccc(N)c3)cc21 [Example 1-578, 3-(3-aminobenzyloxy)-13-cyclohexyl-5-(2-dimethylaminoethyl)-6,7-dihydro-5H-benzo[5,6][1,4]diazepino[7,1-a]indole-10-carboxylic acid trihydrochloride] | < 100
10 | CN(C)CCN1CCn2c(c(C3CCCCC3)c3ccc(C(=O)O)cc32)-c2ccc(OCc3cccc([N+](=O)[O-])c3)cc21 [Example 1-579, 13-cyclohexyl-5-(2-dimethylaminoethyl)-3-(3-nitrobenzyloxy)-6,7-dihydro-5H-benzo[5,6][1,4]diazepino[7,1-a]indole-10-carboxylic acid dihydrochloride] | < 100
11 | COC(=O)N1CCC(CCN2CCn3c(c(C4CCCCC4)c4ccc(C(=O)O)cc43)-c3ccc(Cl)cc32)CC1 [Example 1-580, 3-chloro-13-cyclohexyl-5-[2-(1-methoxycarbonylpiperidin-4-yl)ethyl]-6,7-dihydro-5H-benzo[5,6][1,4]diazepino[7,1-a]indole-10-carboxylic acid] | < 100
12 | Cc1ccc2c(c1)N(CCc1ccc(F)cc1)CCn1c-2c(C2CCCCC2)c2ccc(C(=O)O)cc21 [Example 1-581, 13-cyclohexyl-5-[2-(4-fluorophenyl)ethyl]-3-methyl-6,7-dihydro-5H-benzo[5,6][1,4]diazepino[7,1-a]indole-10-carboxylic acid] | < 100
13 | CC(=O)Nc1cccc(COc2ccc3c(c2)N(CCN(C)C)CCn2c-3c(C3CCCCC3)c3ccc(C(=O)O)cc32)c1 [Example 1-582, 3-(3-acetylaminobenzyloxy)-13-cyclohexyl-5-(2-dimethylaminoethyl)-6,7-dihydro-5H-benzo[5,6][1,4]diazepino[7,1-a]indole-10-carboxylic acid dihydrochloride] | < 100
14 | COC(=O)c1ccc2c(C3CCCCC3)c3n(c2c1)CCN(CCN(C)C)c1cc(OCc2cccc(C(=O)O)c2)ccc1-3 [Example 1-583, methyl 3-(3-carboxybenzyloxy)-13-cyclohexyl-5-(2-dimethylaminoethyl)-6,7-dihydro-5H-benzo[5,6][1,4]diazepino[7,1-a]indole-10-carboxylate dihydrochloride] | 100 to 1000
15 | CN(C)CCN1CCn2c(c(C3CCCCC3)c3ccc(C(=O)O)cc32)-c2ccc(OCCCN3CCCCC3)cc21 [Example 1-584, 13-cyclohexyl-5-(2-dimethylaminoethyl)-3-[3-(piperidin-1-yl)propoxy]-6,7-dihydro-5H-benzo[5,6][1,4]diazepino[7,1-a]indole-10-carboxylic acid trihydrochloride] | < 100
16 | CN(C)CCN1CCn2c(c(C3CCCCC3)c3ccc(C(=O)O)cc32)-c2ccc(OCc3cccc(N4CCCC4=O)c3)cc21 [Example 1-585, 13-cyclohexyl-5-(2-dimethylaminoethyl)-3-[3-(2-oxopyrrolidin-1-yl)benzyloxy]-6,7-dihydro-5H-benzo[5,6][1,4]diazepino[7,1-a]indole-10-carboxylic acid trihydrochloride] | < 100
17 | CN(C)CCN1CCn2c(c(C3CCCCC3)c3ccc(C(=O)O)cc32)-c2ccc(OCc3cccc(C(=O)O)c3)cc21 [Example 1-586, 3-(3-carboxybenzyloxy)-13-cyclohexyl-5-(2-dimethylaminoethyl)-6,7-dihydro-5H-benzo[5,6][1,4]diazepino[7,1-a]indole-10-carboxylic acid dihydrochloride] | < 100
18 | CN(C)CCN1CCn2c(c(C3CCCCC3)c3ccc(C(=O)O)cc32)-c2ccc(OCc3cccc(C(=O)N(C)C)c3)cc21 [Example 1-587, 13-cyclohexyl-5-(2-dimethylaminoethyl)-3-(3-dimethylcarbamoylbenzyloxy)-6,7-dihydro-5H-benzo[5,6][1,4]diazepino[7,1-a]indole-10-carboxylic acid dihydrochloride] | < 100
19 | Cc1ccc2c(c1)N(CCc1nc(C)cs1)CCn1c-2c(C2CCCCC2)c2ccc(C(=O)O)cc21 [Example 1-588, 13-cyclohexyl-3-methyl-5-[2-(4-methylthiazol-2-yl)ethyl]-6,7-dihydro-5H-benzo[5,6][1,4]diazepino[7,1-a]indole-10-carboxylic acid] | < 100
20 | Cc1cccc(COc2ccc3c(c2)N(CCN(C)C)CCn2c-3c(C3CCCCC3)c3ccc(C(=O)O)cc32)n1 [Example 1-589, 13-cyclohexyl-5-(2-dimethylaminoethyl)-3-(6-methylpyridin-2-ylmethoxy)-6,7-dihydro-5H-benzo[5,6][1,4]diazepino[7,1-a]indole-10-carboxylic acid trihydrochloride] | < 100
21 | CNC(=O)c1cccc(COc2ccc3c(c2)N(CCN(C)C)CCn2c-3c(C3CCCCC3)c3ccc(C(=O)O)cc32)c1 [Example 1-590, 13-cyclohexyl-5-(2-dimethylaminoethyl)-3-(3-methylcarbamoylbenzyloxy)-6,7-dihydro-5H-benzo[5,6][1,4]diazepino[7,1-a]indole-10-carboxylic acid dihydrochloride] | < 100
22 | CN(C)CCN1CCn2c(c(C3CCCCC3)c3ccc(C(=O)O)cc32)-c2ccc(OCc3cccc(N(C)C)c3)cc21 [Example 1-591, 13-cyclohexyl-3-(3-dimethylaminobenzyloxy)-5-(2-dimethylaminoethyl)-6,7-dihydro-5H-benzo[5,6][1,4]diazepino[7,1-a]indole-10-carboxylic acid trihydrochloride] | < 100
23 | CCOc1ccc2c(c1)N(C)CCn1c-2c(C2CCCCC2)c2ccc(C(=O)O)cc21 [Example 1-592, 13-cyclohexyl-3-ethoxy-5-methyl-6,7-dihydro-5H-benzo[5,6][1,4]diazepino[7,1-a]indole-10-carboxylic acid] | < 100
24 | CN1CCn2c(c(C3CCCCC3)c3ccc(C(=O)O)cc32)-c2ccc(OCc3ccccc3)cc21 [Example 1-593, 3-benzyloxy-13-cyclohexyl-5-methyl-6,7-dihydro-5H-benzo[5,6][1,4]diazepino[7,1-a]indole-10-carboxylic acid] | < 100
25 | COc1ccc2c(c1)N(C)CCn1c-2c(C2CCCCC2)c2ccc(C(=O)O)cc21 [Example 1-594, 13-cyclohexyl-3-methoxy-5-methyl-6,7-dihydro-5H-benzo[5,6][1,4]diazepino[7,1-a]indole-10-carboxylic acid] | < 100
26 | O=C(O)c1ccc2c(C3CCCCC3)c3n(c2c1)CCN(CCN1CCCCC1)c1cc(OCc2ccccn2)ccc1-3 [Example 1-595, 13-cyclohexyl-5-[2-(piperidin-1-yl)ethyl]-3-(pyridin-2-ylmethoxy)-6,7-dihydro-5H-benzo[5,6][1,4]diazepino[7,1-a]indole-10-carboxylic acid trihydrochloride] | < 100
